Read-outs that look alike come from different tables or passages of the source.
Columns and labels:
NCI-H460 = experiment: Proliferation assay (crystal violet staining), NCI-H460; assay type: cell-based, human; details: tumour cell proliferation, 4 days incubation, read-out: Inhibition IC50 [M] (NCI-H460)
Description: (§1) Kultivierte humane Tumorzellen (MCF7, […] menschliche Mammakarzinomazellen, bezogen von ATCC HTB22; NCI-H460, menschliche nicht kleinzellige Lungenkarzinomazellen, ATCC HTB-177; DU 145, hormonunabhängige menschliche Prostatakarzinomazellen, ATCC HTB-81; HeLa-MaTu, humane Cervixkarzinomazellen, bezogen von EPO-GmbH, Berlin,) werden in einer Dichte von 5000 (MCF7, DU145) bzw. 3000 (NCI-H460, HeLa-MaTu) Zellen/Messpunkt in einer 96-Loch Multititerplatte in 200 µl des entsprechenden Wachstumsmediums ausplattiert. Nach 24 Stunden werden die Zellen einer Platte (Nullpunkt-Platte) mit Kristallviolett gefärbt (s.u.), während das Medium der anderen Platten durch frisches Kulturmedium (200 µl), dem die Testsubstanzen in verschiedenen Konzentrationen (0 µM, sowie im Bereich 0,01 - 30 µM; die finale Konzentration des Lösungsmittels Dimethylsulfoxid beträgt 0,5%) zugesetzt sind, ersetzt. Die Zellen werden für 4 Tage in Anwesenheit der Testsubstanzen inkubiert. Die Zellproliferation wird durch Färbung der Zellen mit Kristallviolett bestimmt: Die Zellen werden durch Zugabe von 20 µl/Messpunkt einer 11%igen Glutaraldehyd-Lösung 15 min bei Raumtemperatur fixiert. Nach dreimaligem Waschen der fixierten Zellen mit Wasser werden die Platten bei Raumtemperatur getrocknet. Die Zellen werden durch Zugabe von 100 µl/Messpunkt einer 0,1%igen Kristallviolett-Lösung (pH durch Zugabe von Essigsäure auf pH3 eingestellt) gefärbt. Nach dreimaligem Waschen der gefärbten Zellen mit Wasser werden die Platten bei Raumtemperatur getrocknet. Der Farbstoff wird durch Zugabe von 100 µl/Messpunkt einer 10%igen Essigsäure-Lösung gelöst. Die Extinktion wird photometrisch bei einer Wellenlänge von 595 nm bestimmt. Die prozentuale Änderung des Zellwachstums wird durch Normalisierung der Messwerte auf die Extinktionwerte der Nullpunktplatte (=0%) und die Extinktion der unbehandelten (0 µM) Zellen (=100%) berechnet. IC50-Werte werden nach einer 4-Parameterkurvenanpassung mit Hilfe eines Firmeneigenen Computerprogramms berechnet.

DU145 = experiment: Proliferation assay (crystal violet staining), DU145; assay type: cell-based, human; details: tumour cell proliferation, 4 days incubation, read-out: Inhibition IC50 [M] (DU145)
Description: as §1

PLK-1 = molecular target: T1, PLK-1 (Homo sapiens, UniProt P53350); experiment: PLK-1 enzyme assay at 10 mM ATP (indirect HTRF assay); assay type: biochemical; details: read-out: Inhibition PLK-1 IC50 [M] (10 mM ATP)
T1 construct: Fusionsprotein bestehend aus GST und Plk (Kinase Domäne 33-345; MW 36 kDa, conc 0,8 µg/µl); GST; made in house; host or cells: Hi5 insect cells
Description: PLK Enzym-Assay (10 mM ATP)
Für den Kinaseassay wird aus Insektenzellen (Hi5) exprimiertes, durch Glutathion-Sepharose-Affinitätschromatographie und anschließender Gel-filtration (Suerdex 75) gereinigtes rekombinantes Fusionsprotein bestehend aus GST und Plk (Kinase Domäne 33-345; MW 36 kDa, conc 0,8 µg/µl) verwendet. Aliqots hiervon werden in flüssigem Stickstoff weggefroren und bei -80°C gelagert und nach dem Auftauen nur einmal verwendet.
Bei dem verwendeten Assay handelt es sich um einen indirekten HTRF-Assay, bei dem folgende Materialien und Verfahrensweisen zum Einsatz kamen. Als Substrat für die Kinasereaktion wird das biotinylierte Peptid Btn-Ahx-KKLNRTLSFAEPG-Amid x TFA, von Biosyntan, Probennr.: 6178.1 (C-Terminus in Amidform) verwendet. Hierbei handelt es sich um eine artifizielle Sequenz, die von keinem bekannten Protein abgeleitet wurde.
50 nl der in 100% Dimethylsulfoxid (DMSO) gelösten Testverbindungen (Endkonzentrationen : 0 µM und Konzentrationen im Bereich von 0,001 - 20 µM) werden mit 2 µl Enzym Arbeitslösung (0,039 ng/µl Plk-1 im Arbeitspuffer [25 mM MgCl2; 1mM DTT; 50 mM Hepes pH 7,0; 0,01% NP40; 1x Complete; 0,05% BSA] für 30 min vorinkubiert. Anschließend wird die Kinase-Reaktion durch Zugabe von 3 µl Substratlösung [16,7 mM Adenosintriphosphate (ATP) und 1,4 µM Substratpeptid (Biotin-Ttds- KKLNRTLSFAEPG -NH2)] in Arbeitspuffer gestartet, und nach 30 min durch Zugabe einer Abstopp-Lösung (100 mM EDTA, 100 mM Hepes pH 7,5, 800 mM Potassiumfluoride, 0,12% BSA, 0,4 µM SA-XLent (0,05 µM, von CIS bio international, Marcoule, Frankreich), Eu^3+ Cryptate-conjugated Rabbit anti-Mouse IgG (1,5 nM; ein mit Europiumkryptat markierter Anti-Maus-IgG-Antikörper von CIS bio international, Marcoule, Frankreich), 1 nM Anti-phospho-Serine Kinase (ein phospho-spezifischer Antikörper von Upstate Biotechnology, Dundee, Schottland), gestoppt, und bei 4°C über Nacht inkubiert. Danach wird die Menge des phosphorylierten Substratpeptids durch Messung des Resonanzenergietransfers vom Europium-markierten Antikörperkomplex zum Streptavidine-XLent bestimmt. Zu diesem Zweck wird die Fluoreszenzemission bei 620 nm und 665 nm nach Anregung bei 350 nm in einem HTRF-Messgerät, z. B. Rubystar (BMG Labtechnologies, Offenburg, Deutschland) oder Viewlux (Perkin-Elmer), bestimmt. Das Verhältnis der Emissionen bei 665 nm und bei 620 nm wird als Maß für die Menge des phosphorylierten Substratpeptids verwendet. Die Daten werden normalisiert (Enzymreaktion ohne Inhibitor = 0 % Inhibition, alle anderen Assaykomponenten, aber kein Enzym = 100 % Inhibition), und IC50-Werte werden durch einen 4 Parameter-Fit mit einer hauseigenen Software berechnet.

MCF-7 = experiment: Proliferation assay (crystal violet staining), MCF-7; assay type: cell-based, human; details: tumour cell proliferation, 4 days incubation, read-out: Inhibition IC50 [M] (MCF-7)
Description: as §1

T1 sequence (P53350 33-345): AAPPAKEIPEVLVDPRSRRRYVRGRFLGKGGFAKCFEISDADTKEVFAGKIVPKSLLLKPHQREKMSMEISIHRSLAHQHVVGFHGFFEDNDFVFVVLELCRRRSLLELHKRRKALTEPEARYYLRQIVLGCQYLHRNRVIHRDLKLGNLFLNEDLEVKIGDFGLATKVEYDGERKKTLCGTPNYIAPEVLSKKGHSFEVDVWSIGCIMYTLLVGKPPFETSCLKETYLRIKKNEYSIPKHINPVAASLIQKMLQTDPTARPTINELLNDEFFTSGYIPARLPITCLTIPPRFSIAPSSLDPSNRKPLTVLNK

| Structure (SMILES) | IC50 (NCI-H460; Homo sapiens, 96 h) | IC50 (DU145; Homo sapiens, DU-145, 96 h) | IC50 (PLK-1) | IC50 (MCF-7; Homo sapiens, MCF7, 96 h) | IC50 (NCI-H460) | IC50 (DU145) | IC50 (MCF-7) |
| --- | --- | --- | --- | --- | --- | --- | --- |
| CCn1c(=O)c(=CNc2ccc3ccn([C@H]4CCCC[C@H]4N(C)C)c3c2)s/c1=C(/C#N)C(=O)NCC#N (relative stereo) [B193] | 2.6e-07 M | 1.8e-07 M | 1.4e-08 M | 1.8e-07 M | – | – | – |
| CCn1c(=C(C#N)C(=O)NCC(F)(F)F)sc(=CNc2ccc3c(c2)N(C2CCN(C)CC2)CC3)c1=O [B01] | 1.9e-07 M | 1.3e-07 M | 5.7e-09 M | 4.4e-07 M | – | – | – |
| CCn1c(=O)c(=CNc2ccc3ccn(C4CCN(C)CC4)c3c2)s/c1=C(/C#N)C(=O)NCC(F)(F)F [B03, (Z,E/Z)-2-Cyan-2-[3-ethyl-5-[[[1-(1-methyl-4-piperidinyl)-1H-indol-6-yl]amino]methylen]-4-oxo-2-thiazolidinyliden]-N-(2,2,2-trifluorethyl)acetamid] | – | – | 1.6e-09 M | – | 9.6e-08 M | 5.1e-08 M | 1.4e-07 M |
| CCn1c(=C(C#N)C(=O)NCC#N)sc(=CNc2ccc3ccn(C4CCN(C)CC4)c3c2)c1=O [B04] | 1.4e-07 M | 2.9e-08 M | 2.9e-09 M | 7.2e-08 M | – | – | – |
| CCn1c(=C(C#N)C(=O)NC(C)(C)CO)sc(=CNc2ccc3ccn(C4CCN(C)CC4)c3c2)c1=O [B06] | 1.5e-07 M | 1.2e-07 M | 1e-08 M | 2.4e-07 M | – | – | – |
| CCn1c(=O)c(=CNc2ccc3c(CN4CCCCC4)cn(C)c3c2)s/c1=C(/C#N)C(=O)NCC#N [B08] | 3.3e-07 M | 1.4e-07 M | 5.4e-09 M | 6.1e-07 M | – | – | – |
| CCn1c(=O)c(=CNc2ccc3c(c2)c(CCN2CCCC2)cn3C)s/c1=C(/C#N)C(=O)NCC(F)(F)F [B35] | 3.3e-07 M | 1.8e-07 M | 5.9e-09 M | 6.4e-07 M | – | – | – |
| CCn1c(=C(C#N)C(=O)NCC(F)(F)F)sc(=CNc2ccc3c(c2)c(CCN(C)C)cn3C)c1=O [B39] | 4.8e-07 M | 1.8e-07 M | 6.1e-09 M | 3.8e-07 M | – | – | – |
| CCn1c(=C(C#N)C(=O)NCC#N)sc(=CNc2ccc3cnn(C4CCN(C(C)C)CC4)c3c2)c1=O [B44] | 4.9e-07 M | 1.1e-07 M | 1.1e-09 M | 2e-07 M | – | – | – |
| CCN1CCCC1Cn1ccc2ccc(NC=c3sc(=C(C#N)C(=O)NCC(F)(F)F)n(CC)c3=O)cc21 (stereo not shown) [B58] | 4.8e-07 M | 3.2e-07 M | 2e-08 M | 3.7e-07 M | – | – | – |
| CCn1c(=C(C#N)C(=O)NCC(F)(F)F)sc(=CNc2ccc3ccn(C4CCOCC4)c3c2)c1=O [B59] | 1.8e-07 M | 1.7e-07 M | 3.7e-08 M | 3.9e-07 M | – | – | – |
| CCn1c(=C(C#N)C(=O)NCC(F)(F)F)sc(=CNc2ccc3ccn(C4CCN(CC(N)=O)CC4)c3c2)c1=O [B71] | 2.1e-07 M | 1.2e-07 M | 8.2e-09 M | 1.4e-07 M | – | – | – |
| CCn1c(=C(C#N)C(=O)NCC(F)(F)F)sc(=CNc2ccc3ccn(C4CCN(CC(=O)OC)CC4)c3c2)c1=O [B72] | 1.1e-07 M | 1.2e-07 M | 3.9e-09 M | 1.2e-07 M | – | – | – |
| CCn1c(=C(C#N)C(=O)NCC(F)(F)F)sc(=CNc2ccc3ccn(CC(=O)N(C)C)c3c2)c1=O [B80] | 8.9e-07 M | 5.1e-07 M | 4.9e-08 M | 3.1e-07 M | – | – | – |
| CCn1c(=C(C#N)C(=O)NCC#N)sc(=CNc2ccc3cn(C4CCN(C(C)C)CC4)nc3c2)c1=O [B102] | 6.2e-07 M | 2.8e-07 M | 2.2e-08 M | 1.9e-07 M | – | – | – |
| CCCN1CCC(c2cn(CC)c3ccc(NC=c4sc(=C(C#N)C(=O)NCC#N)n(CC)c4=O)cc23)CC1 [B109] | 1.6e-07 M | 5.4e-08 M | 3.5e-09 M | 1.4e-07 M | – | – | – |
| CCn1c(=C(C#N)C(=O)NCC#N)sc(=CNc2ccc3c(c2)c(C2CCN(C4CC4)CC2)cn3C)c1=O [B115] | 1.3e-07 M | 3.7e-08 M | 1.3e-09 M | 1.1e-07 M | – | – | – |
| CCn1c(=O)c(=CNc2ccc3c(c2)c(C2CCN(C)CC2)cn3C)s/c1=C(/C#N)C(=O)NCC(F)(F)F [B118, (Z,E/Z)-2-Cyan-2-[3-ethyl-5-[[[1-methyl-3-(1-methyl-4-piperidinyl)-1H-indol-5-yl]amino]methylen]-4-oxo-2-thiazolidinyliden]-N-(2,2,2-trifluorethyl)acetamid] | 1.7e-07 M | 8.5e-08 M | 2.1e-09 M | 2.9e-07 M | – | – | – |
| CCn1c(=O)c(=CNc2ccc3c(c2)c(C2CCN(C4CC4)CC2)cn3C)s/c1=C(/C#N)C(=O)NCC(F)(F)F [B123] | 5e-07 M | 2.3e-07 M | 1.2e-08 M | 6.2e-07 M | – | – | – |
| CCn1c(=O)c(=CNc2ccc3c(C4CCN(C)CC4)cn(C)c3c2)s/c1=C(/C#N)C(=O)NCC#N [B130] | 3.7e-07 M | 8.4e-08 M | 1e-09 M | 1.4e-07 M | – | – | – |
| CCn1c(=C(C#N)C(=O)NCC(F)(F)F)sc(=CNc2ccc3ccn(CCN4CCCC4)c3c2)c1=O [B132] | 4e-07 M | 2.2e-07 M | 3.3e-09 M | 4.5e-07 M | – | – | – |
| CCn1c(=O)c(=CNc2ccc3ncn(C4CCN(C)CC4)c3c2)s/c1=C(/C#N)C(=O)NCC(F)(F)F [B147] | 2.4e-07 M | 1.3e-07 M | 3.1e-09 M | 2.4e-07 M | – | – | – |
